Test results as given in ChEMBL document CHEMBL1201862, “PubChem BioAssay data set” (2004).
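Step 1: Grow cells in 96-well plates. Step 2: Expose to compound for 48 hours at 5 concentrations. Step 3: Interpolate endpoints linearly; if unreached, use highest concentration. GI50 = concentration required for 50% inhibition of growth.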 The source made the active and inactive calls. No stated cut-off is given here; in the data, active = GI50 up to about 1.1 µM and inactive = higher.

Legend:
Assay in all cases: NCI anticancer screen, dose series, 48 h
MDA-N = system: MDA-N
M14 = system: M14
SR = system: SR
RXF 393 = system: RXF 393
SF-295 = system: SF-295
NCI-H226 = system: NCI-H226
COLO 205 = system: COLO 205
KM12 = system: KM12
U-251 = system: U-251
SF-268 = system: SF-268
MDA-MB-435 = system: MDA-MB-435
NCI-H522 = system: NCI-H522
T47D = system: T47D
SNB-19 = system: SNB-19
RPMI-8226 = system: RPMI-8226
HCT-116 = system: HCT-116
HCC 2998 = system: HCC 2998
786-0 = system: 786-0
OVCAR-8 = system: OVCAR-8
NCI-H460 = system: NCI-H460

| Compound | GI50 (MDA-N) | GI50 (M14) | GI50 (SR) | GI50 (RXF 393) | GI50 (SF-295) | GI50 (NCI-H226) | GI50 (COLO 205) | GI50 (KM12) | GI50 (U-251) | GI50 (SF-268) | GI50 (MDA-MB-435) | GI50 (NCI-H522) | GI50 (T47D) | GI50 (SNB-19) | GI50 (RPMI-8226) | GI50 (HCT-116) | GI50 (HCC 2998) | GI50 (786-0) | GI50 (OVCAR-8) | GI50 (NCI-H460) |
| --- | --- | --- | --- | --- | --- | --- | --- | --- | --- | --- | --- | --- | --- | --- | --- | --- | --- | --- | --- | --- |
| O=C(O)c1ccc2c(O)c(O)ccc2c1 | 18.5 µM (inactive) | 23.5 µM (inactive) | 3.17 µM (inactive) | 20.9 µM (inactive) | 15.2 µM (inactive) | 18.7 µM (inactive) | 26.2 µM (inactive) | 16.4 µM (inactive) | 19.9 µM (inactive) | 8.47 µM (inactive) | 14.1 µM (inactive) | 16.9 µM (inactive) | 45.4 µM (inactive) | 18.8 µM (inactive) | 15.4 µM (inactive) | 25.9 µM (inactive) | 33.3 µM (inactive) | 18.1 µM (inactive) | 20 µM (inactive) |  |
| O=C1NC(Nc2ccccc2)=NC(C(F)(F)F)(C(F)(F)F)N1 | 25.1 µM (inactive) | 21.4 µM (inactive) | 40.1 µM (inactive) |  | 37 µM (inactive) | 41.1 µM (inactive) | 33.4 µM (inactive) | 41.6 µM (inactive) | 27.9 µM (inactive) | 39.8 µM (inactive) | 43 µM (inactive) |  | 36.4 µM (inactive) |  | 34.1 µM (inactive) | 34.6 µM (inactive) | 46.7 µM (inactive) | 39.1 µM (inactive) | 40.2 µM (inactive) | 32.8 µM (inactive) |
| CC1=NNC(=S)NCCCN2CCN(CCCNC(=S)NN=C(C)C=NNC(=S)NCCCN3CCN(CCCNC(=S)NN=C1)CC3)CC2 | > 100 µM (inactive) | > 100 µM (inactive) | > 100 µM (inactive) | > 100 µM (inactive) | > 100 µM (inactive) | > 100 µM (inactive) | > 100 µM (inactive) | > 100 µM (inactive) | > 100 µM (inactive) | > 100 µM (inactive) | > 100 µM (inactive) | > 100 µM (inactive) | > 100 µM (inactive) | > 100 µM (inactive) | > 100 µM (inactive) | > 100 µM (inactive) | > 100 µM (inactive) | > 100 µM (inactive) | > 100 µM (inactive) |  |
| N=C(N)NS(=O)(=O)c1ccc(NCc2cccc3c(=O)c4ccc(Cl)cc4oc23)cc1 | 5.27 µM (inactive) | 6.7 µM (inactive) | 2.08 µM (inactive) | 3.08 µM (inactive) | > 9.35 µM (inactive) | > 25 µM (inactive) | > 11.6 µM (inactive) | 3.25 µM (inactive) | 5.22 µM (inactive) | 4.33 µM (inactive) | 5.04 µM (inactive) |  | > 6.18 µM (inactive) | 5.97 µM (inactive) | 4.61 µM (inactive) | 2.99 µM (inactive) | > 15.3 µM (inactive) | 9.1 µM (inactive) | 7.52 µM (inactive) | 3.15 µM (inactive) |
| CCCC(=O)NC1=C(NCC)C(=O)c2ccccc2C1=O | 20.8 µM (inactive) | > 10 µM (inactive) | 60.5 µM (inactive) | 48.3 µM (inactive) | > 100 µM (inactive) | > 100 µM (inactive) | 36.6 µM (inactive) | 52.4 µM (inactive) | > 100 µM (inactive) | > 100 µM (inactive) | 25.2 µM (inactive) | 25.9 µM (inactive) | > 100 µM (inactive) | > 100 µM (inactive) | > 100 µM (inactive) | 43.7 µM (inactive) | 86.3 µM (inactive) | > 100 µM (inactive) |  | > 100 µM (inactive) |
| COC(=O)Cc1c2n(c3ccccc13)C(=O)N1c3ccccc3C(CC(=O)OC)C21 (stereo not drawn) | > 100 µM (inactive) |  | > 100 µM (inactive) | 21.2 µM (inactive) | 18.8 µM (inactive) | > 100 µM (inactive) | 87.3 µM (inactive) |  | 28.3 µM (inactive) | 39.5 µM (inactive) | > 100 µM (inactive) | 62.1 µM (inactive) | 76 µM (inactive) | 18.1 µM (inactive) | > 100 µM (inactive) | 23 µM (inactive) | 68.1 µM (inactive) | 13.1 µM (inactive) | 31.8 µM (inactive) | 11.6 µM (inactive) |
| CC(C)C1CC(CO)(CNc2cc(Cl)nc(N)n2)C1 (stereo not drawn) | 57.7 µM (inactive) |  | 14.9 µM (inactive) | 19.7 µM (inactive) | 6.22 µM (inactive) | 13.5 µM (inactive) | > 100 µM (inactive) | > 100 µM (inactive) | 44 µM (inactive) | 5 µM (inactive) | 46.1 µM (inactive) | 39 µM (inactive) | 0.805 µM (active) | > 100 µM (inactive) | 11.8 µM (inactive) | 41.3 µM (inactive) | 34.8 µM (inactive) | > 100 µM (inactive) | 88.9 µM (inactive) | 30.9 µM (inactive) |
| CC(=O)c1cccc(NC(=O)C(=O)c2c(O)oc3ccccc3c2=O)c1 | > 100 µM (inactive) | > 100 µM (inactive) | > 100 µM (inactive) | > 100 µM (inactive) | > 100 µM (inactive) | > 100 µM (inactive) |  | > 100 µM (inactive) | > 100 µM (inactive) | > 100 µM (inactive) | > 100 µM (inactive) | > 100 µM (inactive) | > 100 µM (inactive) | > 100 µM (inactive) | > 100 µM (inactive) | > 100 µM (inactive) | > 100 µM (inactive) | > 100 µM (inactive) | > 100 µM (inactive) | > 100 µM (inactive) |
| CN(C)c1n2c3cc([N+](=O)[O-])ccc3[n+]3c(N(C)C)n4ccccc4c3c2c2cccc[n+]12.[O-][Cl+3]([O-])([O-])[O-].[O-][Cl+3]([O-])([O-])[O-] | > 100 µM (inactive) | > 100 µM (inactive) | > 100 µM (inactive) | > 100 µM (inactive) | > 100 µM (inactive) | > 100 µM (inactive) | > 100 µM (inactive) | > 100 µM (inactive) | 51.1 µM (inactive) | 29.7 µM (inactive) | > 100 µM (inactive) | 34.9 µM (inactive) | 73.3 µM (inactive) | 43.1 µM (inactive) | > 100 µM (inactive) | > 100 µM (inactive) | > 100 µM (inactive) | > 100 µM (inactive) | > 100 µM (inactive) | > 100 µM (inactive) |
| Oc1ccc(/C=C/c2cc(O)cc3c2C(c2cc(O)cc(O)c2)C(c2ccc(O)c(O)c2)O3)cc1 (stereo not drawn) | 18.2 µM (inactive) | 31.9 µM (inactive) | 17.6 µM (inactive) | 41.3 µM (inactive) | 36.6 µM (inactive) | 26 µM (inactive) | 19.5 µM (inactive) | 25.6 µM (inactive) | 31 µM (inactive) | 30.6 µM (inactive) | 32.6 µM (inactive) | 27 µM (inactive) | 13.1 µM (inactive) | 18.6 µM (inactive) | 13.5 µM (inactive) | 35.9 µM (inactive) | 25.4 µM (inactive) | 41.8 µM (inactive) | 21.6 µM (inactive) |  |
